Measurements from US20220073536A1 (Rigel Pharmaceuticals, Inc., priority 2003, published 2022).
Read-outs that look alike come from different tables or passages of the source.

Tested on: cultured human mast cells (CHMC)
Assay: CHMC low cell density IgE activation: tryptase assay
Assay type: cell-based
Conditions: low cell density CHMC, IgE activation, tryptase
How it was run: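 Low-density CHMC, 1000-1500 cells/well in MT; 1 hr 37 °C; anti-IgE challenge 30 min 37 °C; supernatant tryptase via fluorogenic substrate, 30 min RT.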

[1] = Homo sapiens, Mast cell, 3 pt, read-out: LD Tryptase, CHMC, IgE, 3 pt
[2] = Homo sapiens, Mast cell, 8 pt, read-out: LD Tryptase, CHMC, IgE, 8 pt

Structure (SMILES) | IC50 [1] [µM] | IC50 [2] [µM] | other results
COc1ccc(Nc2nc(Nc3ccc4c(cnn4CC4CCCCC4)c3)ncc2F)cc1Cl [Compound 718, N4-(3-Chloro-4-methoxyphenyl)-N2-[1-(cyclohexylmethyl)indazol-5-yl]-5-fluoro-2,4-pyrimidinediamine] | < 10 | – | –
Fc1cnc(Nc2ccc3c(cnn3CC3CCCCC3)c2)nc1Nc1ccc(Cl)c(Cl)c1 [Compound 719, N2-[1-(Cyclohexylmethyl)indazol-5-yl]-N4-(3,4-dichlorophenyl)-5-fluoro-2,4-pyrimidinediamine] | < 10 | – | –
CC1(C)Oc2ccc(Nc3nc(Nc4ccc5c(cnn5CC5CCCCC5)c4)ncc3F)cc2NC1=O [Compound 720, N2-[1-(Cyclohexylmethyl)indazol-5-yl]-N4-(2,2-dimethyl-3-oxo-4H-benz[1,4]oxazin-6-yl)-5-fluoro-2,4-pyrimidinediamine] | – | < 10 | –
COc1cc(Nc2nc(Nc3ccc4c(cnn4CC4CCCCC4)c3)ncc2F)ccc1F [Compound 721, N2-[1-(Cyclohexylmethyl)indazol-5-yl)-5-fluoro-N4-(4-fluoro-3-methoxyphenyl)-2,4-pyrimidinediamine] | < 10 | – | –
COc1ccc(Nc2nc(Nc3ccc4cnn(CC5CCCCC5)c4c3)ncc2F)cc1Cl [Compound 722, N4-(3-Chloro-4-methoxyphenyl)-N2-[1-(cyclohexylmethyl)indazol-6-yl]-5-fluoro-2,4-pyrimidinediamine] | < 10 | < 10 | –
Fc1cnc(Nc2ccc3cnn(CC4CCCCC4)c3c2)nc1Nc1ccc(Cl)c(Cl)c1 [Compound 723, N2-[1-(Cyclohexylmethyl)indazol-6-yl]-N4-(3,4-dichlorophenyl)-5-fluoro-2,4-pyrimidinediamine] | > 10 | – | –
CC1(C)Oc2ccc(Nc3nc(Nc4ccc5cnn(CC6CCCCC6)c5c4)ncc3F)cc2NC1=O [Compound 724, N2-[1-(Cyclohexylmethyl)indazol-6-yl]-N4-(2,2-dimethyl-3-oxo-4H-benz[1,4]oxazin-6-yl)-5-fluoro-2,4-pyrimidinediamine] | – | < 10 | –
COc1cc(Nc2nc(Nc3ccc4cnn(CC5CCCCC5)c4c3)ncc2F)ccc1F [Compound 725, N2-[1-(Cyclohexylmethyl)indazol-6-yl)-5-fluoro-N4-(4-fluoro-3-methoxyphenyl)-2,4-pyrimidinediamine] | < 10 | – | –
COc1ccc(Nc2nc(Nc3ccc4c(cnn4CC4CCC4)c3)ncc2F)cc1Cl [Compound 726, N4-(3-Chloro-4-methoxyphenyl)-N2-[1-(cyclobutylmethyl)indazol-5-yl]-5-fluoro-2,4-pyrimidinediamine] | < 10 | – | –
Fc1cnc(Nc2ccc3c(cnn3CC3CCC3)c2)nc1Nc1ccc(Cl)c(Cl)c1 [Compound 727, N2-[1-(Cyclobutylmethyl)indazol-5-yl]-N4-(3,4-dichlorophenyl)-5-fluoro-2,4-pyrimidinediamine] | < 10 | – | –
CC1(C)Oc2ccc(Nc3nc(Nc4ccc5c(cnn5CC5CCC5)c4)ncc3F)cc2NC1=O [Compound 728, N2-[1-(Cyclobutylmethyl)indazol-5-yl]-N4-(2,2-dimethyl-3-oxo-4H-benz[1,4]oxazin-6-yl)-5-fluoro-2,4-pyrimidinediamine] | – | < 10 | –
COc1cc(Nc2nc(Nc3ccc4c(cnn4CC4CCC4)c3)ncc2F)ccc1F [Compound 729, N2-[1-(Cyclobuylmethyl)indazol-5-yl)-5-fluoro-N4-(4-fluoro-3-methoxyphenyl)-2,4-pyrimidinediamine] | – | – | IC50 (8 pt, read-out: LD Tryptase, CHMC, IgE, 8 pt): < 10 µM
COc1ccc(Nc2nc(Nc3ccc4cnn(CC5CCC5)c4c3)ncc2F)cc1Cl [Compound 730, N4-(3-Chloro-4-methoxyphenyl)-N2-[1-(cyclobutylmethyl)indazol-6-yl]-5-fluoro-2,4-pyrimidinediamine] | < 10 | – | –
Fc1cnc(Nc2ccc3cnn(CC4CCC4)c3c2)nc1Nc1ccc(Cl)c(Cl)c1 [Compound 731, N2-[1-(Cyclobutylmethyl)indazol-6-yl]-N4-(3,4-dichlorophenyl)-5-fluoro-2,4-pyrimidinediamine] | < 10 | – | –
CC1(C)Oc2ccc(Nc3nc(Nc4ccc5cnn(CC6CCC6)c5c4)ncc3F)cc2NC1=O [Compound 732, N2-[1-(Cyclobutylmethyl)indazol-6-yl]-N4-(2,2-dimethyl-3-oxo-4H-benz[1,4]oxazin-6-yl)-5-fluoro-2,4-pyrimidinediamine] | – | < 10 | –
COc1cc(Nc2nc(Nc3ccc4cnn(CC5CCC5)c4c3)ncc2F)ccc1F [Compound 733, N2-[1-(Cyclobuylmethyl)indazol-6-yl)-5-fluoro-N4-(4-fluoro-3-methoxyphenyl)-2,4-pyrimidinediamine] | – | – | IC50 (3 pt, read-out: LD Tryptase, CHMC, IgE, 3 pt): < 10 µM
COc1ccc(Nc2nc(Nc3ccc4c(cnn4CC4CC4)c3)ncc2F)cc1Cl [Compound 734, N4-(3-Chloro-4-methoxyphenyl)-N2-[1-(cyclopropylmethyl)indazol-5-yl]-5-fluoro-2,4-pyrimidinediamine] | – | < 10 | –
Fc1cnc(Nc2ccc3c(cnn3CC3CC3)c2)nc1Nc1ccc(Cl)c(Cl)c1 [Compound 735, N2-[1-(Cyclopropylmethyl)indazol-5-yl]-N4-(3,4-dichlorophenyl)-5-fluoro-2,4-pyrimidinediamine] | < 10 | – | –

Structure (SMILES) | IC50 [1] [µM] | IC50 [2] [µM] | other results
CC1(C)Oc2ccc(Nc3nc(Nc4ccc5c(cnn5CC5CC5)c4)ncc3F)cc2NC1=O [Compound 736, N2-[1-(Cyclopropylmethyl)indazol-5-yl]-N4-(2,2-dimethyl-3-oxo-4H-benz[1,4]oxazin-6-yl)-5-fluoro-2,4-pyrimidinediamine] | – | < 10 | –
COc1cc(Nc2nc(Nc3ccc4c(cnn4CC4CC4)c3)ncc2F)ccc1F [Compound 737, N2-[1-(Cyclopropylmethyl)indazol-5-yl)-5-fluoro-N4-(4-fluoro-3-methoxyphenyl)-2,4-pyrimidinediamine] | – | < 10 | –
COc1ccc(Nc2nc(Nc3ccc4cnn(CC5CC5)c4c3)ncc2F)cc1Cl [Compound 738, N4-(3-Chloro-4-methoxyphenyl)-N2-[1-(cyclopropylmethyl)indazol-6-yl]-5-fluoro-2,4-pyrimidinediamine] | – | < 10 | –
Fc1cnc(Nc2ccc3cnn(CC4CC4)c3c2)nc1Nc1ccc(Cl)c(Cl)c1 [Compound 739, N2-[1-(Cyclopropylmethyl)indazol-6-yl]-N4-(3,4-dichlorophenyl)-5-fluoro-2,4-pyrimidinediamine] | < 10 | – | –
CC1(C)Oc2ccc(Nc3nc(Nc4ccc5cnn(CC6CC6)c5c4)ncc3F)cc2NC1=O [Compound 740, N2-[1-(Cyclopropylmethyl)indazol-6-yl]-N4-(2,2-dimethyl-3-oxo-4H-benz[1,4]oxazin-6-yl)-5-fluoro-2,4-pyrimidinediamine] | – | < 10 | –
COc1cc(Nc2nc(Nc3ccc4cnn(CC5CC5)c4c3)ncc2F)ccc1F [Compound 741, N2-[1-(Cyclopropylmethyl)indazol-6-yl)-5-fluoro-N4-(4-fluoro-3-methoxyphenyl)-2,4-pyrimidinediamine] | – | < 10 | –
COc1ccc(Nc2nc(Nc3ccc4c(cnn4C4CCCCC4)c3)ncc2F)cc1Cl [Compound 742, N4-(3-Chloro-4-methoxyphenyl)-N2-(1-cyclohexylindazol-5-yl)-5-fluoro-2,4-pyrimidinediamine] | < 10 | < 10 | –
Fc1cnc(Nc2ccc3c(cnn3C3CCCCC3)c2)nc1Nc1ccc(Cl)c(Cl)c1 [Compound 743, N2-(1-Cyclohexylindazol-5-yl)-N4-(3,4-dichlorophenyl)-5-fluoro-2,4-pyrimidinediamine] | < 10 | – | –
CC1(C)Oc2ccc(Nc3nc(Nc4ccc5c(cnn5C5CCCCC5)c4)ncc3F)cc2NC1=O [Compound 744, N2-(1-Cyclohexylindazol-5-yl)-N4-(2,2-dimethyl-3-oxo-4H-benz[1,4]oxazin-6-yl)-5-fluoro-2,4-pyrimidinediamine] | – | < 10 | –
COc1cc(Nc2nc(Nc3ccc4c(cnn4C4CCCCC4)c3)ncc2F)ccc1F [Compound 745, N2-(1-Cyclohexylindazol-5-yl)-5-fluoro-N4-(4-fluoro-3-methoxyphenyl)-2,4-pyrimidinediamine] | < 10 | – | –
COc1ccc(Nc2nc(Nc3ccc4cnn(C5CCCCC5)c4c3)ncc2F)cc1Cl [Compound 746, N4-(3-Chloro-4-methoxyphenyl)-N2-(1-cyclohexylindazol-6-yl)-5-fluoro-2,4-pyrimidinediamine] | < 10 | – | –
Fc1cnc(Nc2ccc3cnn(C4CCCCC4)c3c2)nc1Nc1ccc(Cl)c(Cl)c1 [Compound 747, N2-(1-Cyclohexylindazol-6-yl)-N4-(3,4-dichlorophenyl)-5-fluoro-2,4-pyrimidinediamine] | < 10 | – | –
CC1(C)Oc2ccc(Nc3nc(Nc4ccc5cnn(C6CCCCC6)c5c4)ncc3F)cc2NC1=O [Compound 748, N2-(1-Cyclohexylindazol-6-yl)-N4-(2,2-dimethyl-3-oxo-4H-benz[1,4]oxazin-6-yl)-5-fluoro-2,4-pyrimidinediamine] | – | < 10 | –
COc1cc(Nc2nc(Nc3ccc4cnn(C5CCCCC5)c4c3)ncc2F)ccc1F [Compound 749, N2-(1-Cyclohexylindazol-6-yl)-5-fluoro-N4-(4-fluoro-3-methoxyphenyl)-2,4-pyrimidinediamine] | < 10 | – | –
Cc1n[nH]c2cc(Nc3ncc(F)c(Nc4ccc(Cl)c(Cl)c4)n3)ccc12 [Compound 750, N4-(3,4-Dichlorophenyl)-5-fluoro-N2-(3-methylindazol-6-yl)-2,4-pyrimidinediamine] | < 10 | < 10 | –
Cc1n[nH]c2cc(Nc3ncc(F)c(Nc4ccc5c(c4)NC(=O)C(C)(C)O5)n3)ccc12 [Compound 751, N4-(2,2-Dimethyl-3-oxo-4H-benz[1,4]oxazin-6-yl)-5-fluoro-N2-(3-methylindazol-6-yl)-2,4-pyrimidinediamine] | < 10 | < 10 | –
COc1ccc(Nc2nc(Nc3ccc4c(C)nn(C)c4c3)ncc2F)cc1Cl [Compound 752, N4-(3-Chloro-4-methoxyphenyl)-N2-(1,3-dimethylindazol-6-yl)-5-fluoro-2,4-pyrimidinediamine] | < 10 | < 10 | –
